Assays:
PRMT5/MEP50 [1] = molecular target: T1, PRMT5/MEP50 (Homo sapiens, UniProt O14744); assay: PRMT5/MEP50 enzyme inhibition assay, Assay 2 (384-well, MALDI mass spectrometry, SAM, histone H4 1-21 peptide); type: biochemical; conditions: 1 μM SAM, 0.1 μM histone H4 1-21 peptide, 18-hour incubation at rt
Description: Compounds were tested for inhibition of methyltransferase activity in 384-well plate assay format using mass spectrometry technology. In this enzyme inhibition assay, compounds were tested in a 11-dose IC50 mode with 3-serial dilution, in duplicate, starting at 1, 10, or 100 μM. Reactions were carried out at 1 μM SAM and 0.1 μM histone H4 1-21 peptide as substrates for methyl transfer. Following an 18-hour incubation at rt, the reaction was stopped with 0.5% formic acid. Products of the reaction were captured while unreacted substrates were washed away, prior to MALDI mass spectrometry detection and analysis. Percent enzyme activity was calculated based on no inhibitor DMSO control as 100% activity. EC50 values were determined in GraphPad Prism 8 using the [inhibitor] vs. response—Variable slope (four parameters) function.
(§1) Compounds of Formula (I) show activity in this assay. A value of ‘A’ in the table below indicates an IC50 of <1 nM, a value of ‘B’ indicates an IC50≥1 nM to ≤100 nM, and a value of ‘C’ indicates an IC50 value of >100 nM.

HepG2 hepatoma cells = assay: Cell proliferation assay HepG2 (CellTiter-Glo, 7 days); type: cell-based; conditions: Homo sapiens, 168 h; HepG2, 7 days, cell viability CellTiter-Glo 2.0
Description: (§2) HepG2 hepatoma cells (ATCC, HB-8065) were maintained in DMEM with high glucose (Lonza, 12-914F) supplemented with 10% fetal bovine serum (FBS; Biowest, S181B-500) and 2 mM L-glutamine (Biowest, X0551-100) at 37° C. and 5% CO2. A549 lung carcinoma cells (ATCC, CCL-185) were maintained in F-12K medium (ThermoFisher 21127030) supplemented with 10% FBS at 37° C. and 5% CO2. Exponentially growing HepG2 or A549 were plated in white, clear-bottom 96-well plates (Corning, 3903) at a cell density of 2000 (HepG2) or 350 (A549) cells per well in 199 μL of HepG2 medium. Next, 1 μL of a 5-fold 9-point dilution series of test compound in DMSO was added to the different wells. Cells were incubated at 37° C. 5% CO2 for 7 days. Cell viability was assessed on day 7 with the CellTiter-Glo 2.0 Cell Viability assay kit (Promega, G9243) to quantify the intracellular amounts of ATP: first, 100 μL of cell culture medium was removed from each well, next 100 μL of CellTiter-Glo® 2.0 Reagent was added and plates were shaken for 2 minutes on an orbital shaker. After 10 minutes stabilization at room temperature, read-out was performed on a ThermoFisher VarioSkan Lux plate reader. Counts were normalized to DMSO control (0% inhibition) and the cytotoxic control (100% inhibition) and EC50 values were determined in GraphPad Prism 8 using the [Agonist] vs. response—Variable slope (four parameters) function.
(§3) As shown by the data of Table 2, compounds of Formula (I) have activity in this assay. A value of ‘A’ in the table below indicates an EC50 of <20 nM, a value of ‘B’ indicates an EC50≥20 nM to <100 nM, a value of ‘C’ indicates an EC50 value of EC50≥100 nM to <1000 nM and a value of ‘D’ indicates an EC50≥1000 nM

[2] = tested on: A549 lung carcinoma cells; assay: Cell proliferation assay A549 (CellTiter-Glo, 7 days); type: cell-based; conditions: Homo sapiens, A549, 168 h, A549, 7 days, cell viability CellTiter-Glo 2.0
Description: as §2, §3

PRMT5/MEP50 [3] = molecular target: T1, PRMT5/MEP50; assay: PRMT5/MEP50 enzyme inhibition assay, Assay 1 (radioisotope filter binding, 3H-SAM, histone H2A); type: biochemical; conditions: 1 μM 3H-SAM, 5 μM histone H2A, 60 min at 30° C.
Description: Compounds were tested for inhibition of methyltransferase activity in a radioisotope filter binding assay, similar to previously described in A selective inhibitor of PRMT5 with in vivo and in vitro potency in MCL models. Chan-Penebre et al., Nat Chem Biol. (2015) 11(6):432-7. In the standard PRMT5/MEP50 enzyme inhibition assay, compounds were tested in a 10-dose IC50 mode with 3- or 5-fold serial dilution, in singlet, starting at 1, 10, or 100 μM. Control compound, SAH (S-(5′-Adenosyl)-L-homocysteine), was tested in 10-dose IC50 mode with 3-fold serial dilution starting at 100 μM. Reactions were carried out at 1 μM 3H-SAM (PerkinElmer) and 5 μM histone H2A as substrates for methyl transfer. Following a 60 min incubation at 30° C., the reaction was stopped with 20% TCA. Each reaction was spotted on a filter plate (MultiScreen FB Filter plate, Millipore) and washed 5 times in PBS, after which scintillation fluid was added and signal was detected in a scintillation counter. Percent enzyme activity was calculated based on no inhibitor DMSO control as 100% activity. EC50 values were determined in GraphPad Prism 8 using the [inhibitor] vs. response—Variable slope (four parameters) function.
as §1

T1 sequence (O14744 whole entry): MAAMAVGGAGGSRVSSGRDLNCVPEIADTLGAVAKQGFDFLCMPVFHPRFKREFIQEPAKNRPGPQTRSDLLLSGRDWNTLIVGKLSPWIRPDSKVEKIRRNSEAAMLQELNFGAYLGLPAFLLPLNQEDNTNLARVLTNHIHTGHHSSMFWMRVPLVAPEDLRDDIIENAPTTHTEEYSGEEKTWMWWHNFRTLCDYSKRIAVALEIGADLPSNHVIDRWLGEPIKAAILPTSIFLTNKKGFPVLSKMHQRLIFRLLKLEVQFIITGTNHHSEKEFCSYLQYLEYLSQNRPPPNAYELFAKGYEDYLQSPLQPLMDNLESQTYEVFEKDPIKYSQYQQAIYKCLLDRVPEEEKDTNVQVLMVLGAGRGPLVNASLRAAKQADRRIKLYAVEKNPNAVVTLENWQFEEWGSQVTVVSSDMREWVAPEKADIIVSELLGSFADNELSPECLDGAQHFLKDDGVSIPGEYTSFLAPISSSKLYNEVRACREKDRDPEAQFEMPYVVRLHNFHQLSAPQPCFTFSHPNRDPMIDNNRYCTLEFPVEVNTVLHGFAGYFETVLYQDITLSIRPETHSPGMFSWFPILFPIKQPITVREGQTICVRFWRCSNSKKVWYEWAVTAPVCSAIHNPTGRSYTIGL
T1 sequence (Q9BQA1 whole entry partner): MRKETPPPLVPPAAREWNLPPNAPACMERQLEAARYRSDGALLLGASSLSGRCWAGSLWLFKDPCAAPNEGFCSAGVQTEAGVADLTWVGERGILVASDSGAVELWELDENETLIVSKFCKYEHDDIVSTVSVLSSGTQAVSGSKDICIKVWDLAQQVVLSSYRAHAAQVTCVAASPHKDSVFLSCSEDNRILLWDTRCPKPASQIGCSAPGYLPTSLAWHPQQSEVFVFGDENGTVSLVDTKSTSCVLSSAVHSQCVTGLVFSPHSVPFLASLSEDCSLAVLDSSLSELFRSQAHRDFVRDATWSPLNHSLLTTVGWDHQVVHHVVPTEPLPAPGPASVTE

Compound	IC50 (PRMT5/MEP50 [1]) [nM]	EC50 (HepG2 hepatoma cells) [nM]	EC50 [2] [nM]	IC50 (PRMT5/MEP50 [3]) [nM]
C[C@]1(CCc2ccc3cc(Cl)c(N)nc3c2)C[C@@H](n2ccc3c(N)ncnc32)[C@H](O)[C@@H]1O [Compound 18]	< 1	< 20	< 20	
COC[C@]1(CCc2cc(F)c3cc(Cl)c(N)nc3c2)C[C@@H](c2ccc3c(N)ncnn23)[C@H](O)[C@@H]1O [Compound 64]			< 20	
COC[C@]1(CCc2ccc3cc(Br)c(N)nc3c2)C[C@@H](n2ccc3c(N)ncnc32)[C@H](O)[C@@H]1O [Compound 58]		< 20	< 20	
Nc1ccc2ccc(CC[C@@]3(F)C[C@@H](n4ccc5c(N)ncnc54)[C@H](O)[C@@H]3O)cc2n1 [Compound 35, (1S,2S,3R,5R)-5-(4-amino-7H-pyrrolo[2,3-d]pyrimidin-7-yl)-3-(2-(2-aminoquinolin-7-yl)ethyl)-3-fluorocyclopentane-1,2-diol]	< 1			
C[C@H]1[C@H](CCc2ccc3ccc(N)nc3c2)[C@@H](O)[C@@H](O)[C@@H]1n1ccc2c(N)ncnc21 [Compound 5]	< 1	100 to 1000	100 to 1000	< 1
CCCCCOC(=O)Nc1ccc2ccc(CC[C@@]3(C)C[C@@H](c4ccc5c(N)ncnn45)[C@H](O)[C@@H]3O)cc2n1 [Compound 55]	> 100	20 to 100	20 to 100	
C[C@]1(CCc2ccc3ccc(N)nc3n2)C[C@@H](n2ccc3c(N)ncnc32)[C@H](O)[C@@H]1O [Compound 24]	< 1	20 to 100	20 to 100	
C[C@]1(CCc2ccc3cc(Br)c(N)nc3c2)C[C@@H](c2ccc3c(N)ncnn23)[C@H](O)[C@@H]1O [Compound 59]	< 1	< 20	< 20	
C[C@]1(CCc2ccc3cc(C#N)c(N)nc3c2)C[C@@H](n2ccc3c(N)ncnc32)[C@H](O)[C@@H]1O [Compound 27]	< 1	20 to 100	20 to 100	
C=C[C@]1(CCc2ccc3cc(Br)c(N)nc3c2)C[C@@H](n2ccc3c(N)ncnc32)[C@H](O)[C@@H]1O [Compound 62]			< 20	
C=C1[C@@H](n2ccc3c(N)ncnc32)[C@H](O)[C@H](O)[C@H]1CCc1ccc2cc(Br)c(N)nc2c1 [Compound 4]	< 1	< 20	< 20	< 1
C[C@]1(CCc2cc(F)c3ccc(N)nc3c2)C[C@@H](n2ccc3c(N)ncc(F)c32)[C@H](O)[C@@H]1O [Compound 42, (1S,2R,3S,5R)-3-(2-(2-amino-5-fluoroquinolin-7-yl)ethyl)-5-(4-amino-7-fluoro-1H-pyrrolo[3,2-c]pyridin-1-yl)-3-methylcyclopentane-1,2-diol]	< 1			
C[C@@H]1[C@H](CCc2ccc3ccc(N)nc3c2)[C@@H](O)[C@@H](O)[C@@H]1n1ccc2c(N)ncnc21 [Compound 6]	1 to 100	≥ 1000	≥ 1000	1 to 100
C[C@]1(CCc2ccc3cc(C(F)F)c(N)nc3c2)C[C@@H](n2ccc3c(N)ncnc32)[C@H](O)[C@@H]1O [Compound 23]	< 1	< 20	< 20	
C[C@]1(CCc2ccc3cc(Br)c(N)nc3c2)C[C@@H](n2ccc3c(N)ncc(F)c32)[C@H](O)[C@@H]1O [Compound 50]	< 1	< 20	< 20	
C[C@]1(CCc2cc(F)c3cc(Cl)c(N)nc3c2)C[C@@H](n2ccc3c(N)ncc(F)c32)[C@H](O)[C@@H]1O [Compound 34, (1S,2R,3S,5R)-3-[2-(2-amino-3-chloro-5-fluoro-7-quinolyl)ethyl]-5-(4-amino-7-fluoro-pyrrolo[3,2-c]pyridin-1-yl)-3-methyl-cyclopentane-1,2-diol]	< 1			
C#C[C@]1(CCc2ccc3cc(Br)c(N)nc3c2)C[C@@H](n2ccc3c(N)ncnc32)[C@H](O)[C@@H]1O [Compound 63]			< 20	
C[C@]1(CCc2cc(F)c3cc(Cl)c(N)nc3c2)C[C@@H](n2ccc3c(N)nc(Cl)nc32)[C@H](O)[C@@H]1O [Compound 53]	< 1	< 20	< 20	
C[C@]1(CCc2cc(F)c3cc(Cl)c(N)nc3c2)C[C@@H](c2ccc3c(N)ncnn23)[C@H](O)[C@@H]1O [Compound 57]		< 20	< 20	
Cn1c(N)nc2cc(CC[C@@]3(C)C[C@@H](n4ccc5c(N)ncnc54)[C@H](O)[C@@H]3O)ccc2c1=O [Compound 29]	< 1	< 20	20 to 100	
C[C@]1(CCc2ccc3cc(Br)c(N)nc3c2)C[C@@H](n2ccc3c(N)ncnc32)[C@H](O)[C@@H]1O [Compound 1]	< 1			< 1
Nc1nc2cc(OC[C@@H]3[C@@H](O)[C@@H](O)[C@]4(n5ccc6c(N)ncnc65)C[C@@H]34)ccc2cc1Br (racemic) [Compound 17, rac-(2S,3R,4R,5S)-4-[(2-amino-3-bromo-7-quinolyl)oxymethyl]-1-(4-aminopyrrolo[2,3-d]pyrimidin-7-yl)bicyclo[3.1.0]hexane-2,3-diol]		≥ 1000	≥ 1000	
C[C@]1(CCc2ccc3cc(Cl)c(N)nc3c2)C[C@@H](n2ccc3c(N)ncnc32)[C@H](O)[C@]1(C)O [Compound 28]	< 1	20 to 100	100 to 1000	
CC(C)C(=O)O[C@H]1[C@H](n2ccc3c(N)ncnc32)C[C@](C)(CCc2ccc3nc(N)ccc3c2)[C@H]1OC(=O)C(C)C [Compound 26-A]	> 100	≥ 1000	≥ 1000	
Nc1nc2cc(CC[C@@]34C[C@@H]3[C@@H](n3ccc5c(N)ncnc53)[C@H](O)[C@@H]4O)ccc2cc1Br [Compound 2]	< 1	< 20	< 20	< 1
C=C1[C@@H](n2ccc3c(N)ncnc32)[C@H](O)[C@H](O)[C@H]1CCc1ccc2cc(Br)c(Cl)nc2c1 [Compound 3]	> 100	100 to 1000	100 to 1000	> 100
Cc1cnc2cc(OC[C@@]34C[C@@H]3[C@@H](n3ccc5c(N)ncnc53)[C@H](O)[C@@H]4O)ccn12 [Compound 16]	< 1	≥ 1000	≥ 1000	
